In brackets after ≈: the same amount, converted by molar mass. Values belong to the molecule of their own block, whether it stands above or below them.
How the values were obtained:
Format in all cases: functional
Staphylococcus aureus [1] = experiment: Antibacterial activity against Staphylococcus aureus ATCC 29213 incubated for 18 hrs by serial two-fold dilution method
[2] = system: Staphylococcus epidermidis; experiment: Antibacterial activity against Staphylococcus epidermidis ATCC 12228 incubated for 18 hrs by serial two-fold dilution method
Staphylococcus aureus [3] = experiment: Antibacterial activity against methicillin resistant Staphylococcus aureus ATCC 33592 incubated for 18 hrs by serial two-fold dilution method
Staphylococcus aureus [4] = experiment: Antibacterial activity against methicillin resistant Staphylococcus aureus ATCC 43300 incubated for 18 hrs by serial two-fold dilution method

SMILES: C/C(O)=C1\C(=O)[C@@H]2Cc3c([nH]c4ccccc34)[C@@H](c3ccc(-c4ccc(F)cc4)cc3)N2C1=O
MIC (Staphylococcus aureus [1]): 0.063 µg/mL (≈ 0.139 µM) | MIC [2]: 0.125 µg/mL (≈ 0.276 µM) | MIC (Staphylococcus aureus [3]): 0.125 µg/mL (≈ 0.276 µM)

SMILES: C/C(O)=C1\C(=O)[C@@H]2Cc3c([nH]c4ccccc34)[C@@H](c3ccc(-c4ccc(C(F)(F)F)cc4)cc3)N2C1=O
MIC (Staphylococcus aureus [1]): 0.063 µg/mL (≈ 0.125 µM) | MIC [2]: 0.063 µg/mL (≈ 0.125 µM) | MIC (Staphylococcus aureus [3]): 0.25 µg/mL (≈ 0.498 µM)

SMILES: O=C(OC1=CC(=O)N2[C@H](c3ccc(-c4cc(F)cc(F)c4)cc3)c3[nH]c4ccccc4c3C[C@@H]12)c1cccs1
MIC (Staphylococcus aureus [1]): > 4 µg/mL | MIC [2]: > 4 µg/mL | MIC (Staphylococcus aureus [3]): > 4 µg/mL

SMILES: CCC(=O)OC1=CC(=O)N2[C@H](c3ccc(-c4cc(F)cc(F)c4)cc3)c3[nH]c4ccccc4c3C[C@@H]12
MIC (Staphylococcus aureus [1]): > 4 µg/mL | MIC [2]: > 4 µg/mL | MIC (Staphylococcus aureus [3]): > 4 µg/mL

SMILES: C/C(O)=C1\C(=O)[C@@H]2Cc3c([nH]c4ccccc34)[C@@H](c3ccc(-c4ccccc4C)cc3)N2C1=O
MIC (Staphylococcus aureus [1]): 0.125 µg/mL (≈ 0.279 µM) | MIC [2]: 0.5 µg/mL (≈ 1.11 µM) | MIC (Staphylococcus aureus [3]): 0.25 µg/mL (≈ 0.557 µM)

SMILES: C/C(O)=C1\C(=O)[C@@H]2Cc3c([nH]c4ccccc34)[C@@H](c3ccc(-c4cc(F)c(F)c(F)c4)cc3)N2C1=O
MIC (Staphylococcus aureus [1]): 0.5 µg/mL (≈ 1.02 µM) | MIC [2]: 1 µg/mL (≈ 2.05 µM) | MIC (Staphylococcus aureus [3]): 1 µg/mL (≈ 2.05 µM)

SMILES: O=C(OC1=CC(=O)N2[C@H](c3ccc(-c4cc(F)cc(F)c4)cc3)c3[nH]c4ccccc4c3C[C@@H]12)c1ccccc1
MIC (Staphylococcus aureus [1]): > 4 µg/mL | MIC [2]: > 4 µg/mL | MIC (Staphylococcus aureus [3]): > 4 µg/mL

SMILES: C/C(O)=C1\C(=O)[C@@H]2Cc3c([nH]c4ccccc34)[C@@H](c3ccc(-c4ccc(F)cc4)o3)N2C1=O
MIC (Staphylococcus aureus [1]): 0.5 µg/mL (≈ 1.13 µM) | MIC [2]: 0.5 µg/mL (≈ 1.13 µM) | MIC (Staphylococcus aureus [3]): 0.5 µg/mL (≈ 1.13 µM) | MIC (Staphylococcus aureus [4]): 0.5 µg/mL (≈ 1.13 µM)

SMILES: C/C(O)=C1\C(=O)[C@@H]2Cc3c(n(S(=O)(=O)c4ccc(C)cc4)c4ccccc34)[C@@H](c3ccc(-c4ccc(F)cc4)cc3)N2C1=O
MIC (Staphylococcus aureus [1]): 2 µg/mL (≈ 3.3 µM) | MIC [2]: 0.25 µg/mL (≈ 0.412 µM) | MIC (Staphylococcus aureus [3]): 2 µg/mL (≈ 3.3 µM)

MIC (Staphylococcus aureus [1]): 2 µg/mL (≈ 4.69 µM)
SMILES: C/C(O)=C1\C(=O)[C@@H]2Cc3c([nH]c4ccccc34)[C@@H](c3ccc(C(F)(F)F)cc3)N2C1=O

MIC (Staphylococcus aureus [1]): 64 µg/mL (≈ 178 µM)
SMILES: C/C(O)=C1\C(=O)[C@@H]2Cc3c([nH]c4ccccc34)[C@@H](c3ccccn3)N2C1=O

SMILES: CC(=O)OC1=CC(=O)N2[C@H](c3ccc(-c4cc(F)cc(F)c4)cc3)c3[nH]c4ccccc4c3C[C@@H]12
MIC (Staphylococcus aureus [1]): > 4 µg/mL | MIC [2]: > 4 µg/mL | MIC (Staphylococcus aureus [3]): > 4 µg/mL

SMILES: O=C1CC(=O)N2[C@H](c3ccc(-c4ccc(C(F)(F)F)cc4)cc3)c3[nH]c4ccccc4c3C[C@@H]12
MIC (Staphylococcus aureus [1]): > 4 µg/mL | MIC [2]: 4 µg/mL (≈ 8.69 µM) | MIC (Staphylococcus aureus [3]): > 4 µg/mL

SMILES: Cc1ccc(/C(O)=C2\C(=O)[C@@H]3Cc4c([nH]c5ccccc45)[C@@H](c4ccc(-c5cc(F)cc(F)c5)cc4)N3C2=O)cc1
MIC (Staphylococcus aureus [1]): 0.5 µg/mL (≈ 0.915 µM) | MIC [2]: 0.25 µg/mL (≈ 0.457 µM) | MIC (Staphylococcus aureus [3]): 0.5 µg/mL (≈ 0.915 µM)

SMILES: O=C(OC1=CC(=O)N2[C@H](c3ccc(-c4cc(F)cc(F)c4)cc3)c3[nH]c4ccccc4c3C[C@@H]12)c1ccc2ccccc2c1
MIC (Staphylococcus aureus [1]): 4 µg/mL (≈ 6.87 µM) | MIC [2]: > 4 µg/mL | MIC (Staphylococcus aureus [3]): 2 µg/mL (≈ 3.43 µM)

SMILES: C/C(O)=C1\C(=O)[C@@H]2Cc3c([nH]c4ccccc34)[C@@H](c3ccc(-c4cc(C(F)(F)F)cc(C(F)(F)F)c4)cc3)N2C1=O
MIC (Staphylococcus aureus [1]): 1 µg/mL (≈ 1.75 µM) | MIC [2]: 1 µg/mL (≈ 1.75 µM) | MIC (Staphylococcus aureus [3]): 1 µg/mL (≈ 1.75 µM)

MIC (Staphylococcus aureus [1]): > 128 µg/mL
SMILES: CC[C@@H]1c2[nH]c3ccccc3c2C[C@H]2C(=O)/C(=C(\C)O)C(=O)N12

MIC (Staphylococcus aureus [1]): 32 µg/mL (≈ 85.9 µM)
SMILES: C/C(O)=C1\C(=O)[C@@H]2Cc3c([nH]c4ccccc34)[C@@H](Cc3ccccc3)N2C1=O

MIC (Staphylococcus aureus [1]): 8 µg/mL (≈ 19.6 µM)
SMILES: C/C(O)=C1\C(=O)[C@@H]2Cc3c([nH]c4ccccc34)[C@@H](c3ccc4ccccc4c3)N2C1=O

MIC (Staphylococcus aureus [1]): 4 µg/mL (≈ 10.7 µM)
SMILES: C/C(O)=C1\C(=O)[C@@H]2Cc3c([nH]c4ccccc34)[C@@H](c3ccc(C)cc3)N2C1=O

SMILES: CC(C)=CCc1cccc2[nH]c3c(c12)C[C@H]1C(=O)/C(=C(\C)O)C(=O)N1[C@@H]3C
MIC (Staphylococcus aureus [1]): 8 µg/mL (≈ 22 µM) | MIC [2]: 8 µg/mL (≈ 22 µM) | MIC (Staphylococcus aureus [3]): 8 µg/mL (≈ 22 µM) | MIC (Staphylococcus aureus [4]): 8 µg/mL (≈ 22 µM)

SMILES: O=C1/C(=C(/O)c2ccc3ccccc3c2)C(=O)N2[C@H](c3ccc(-c4cc(F)cc(F)c4)cc3)c3[nH]c4ccccc4c3C[C@@H]12
MIC (Staphylococcus aureus [1]): 4 µg/mL (≈ 6.87 µM) | MIC [2]: 2 µg/mL (≈ 3.43 µM) | MIC (Staphylococcus aureus [3]): 2 µg/mL (≈ 3.43 µM)

SMILES: C/C(O)=C1\C(=O)[C@@H]2Cc3c(n(CC4CC4)c4ccccc34)[C@@H](c3ccc(-c4ccc(F)cc4)cc3)N2C1=O
MIC (Staphylococcus aureus [1]): 0.125 µg/mL (≈ 0.247 µM) | MIC [2]: 0.25 µg/mL (≈ 0.494 µM) | MIC (Staphylococcus aureus [3]): 0.125 µg/mL (≈ 0.247 µM) | MIC (Staphylococcus aureus [4]): 0.125 µg/mL (≈ 0.247 µM)

SMILES: O=C1/C(=C(/O)c2ccccc2)C(=O)N2[C@H](c3ccc(-c4cc(F)cc(F)c4)cc3)c3[nH]c4ccccc4c3C[C@@H]12
MIC (Staphylococcus aureus [1]): 0.25 µg/mL (≈ 0.469 µM) | MIC [2]: 0.25 µg/mL (≈ 0.469 µM) | MIC (Staphylococcus aureus [3]): 0.125 µg/mL (≈ 0.235 µM) | MIC (Staphylococcus aureus [4]): 0.125 µg/mL (≈ 0.235 µM)

MIC (Staphylococcus aureus [1]): 32 µg/mL (≈ 85 µM)
SMILES: C/C(O)=C1\C(=O)[C@@H]2Cc3c([nH]c4ccccc34)[C@H](c3cccc(F)c3)N2C1=O

MIC (Staphylococcus aureus [1]): 16 µg/mL (≈ 44.6 µM)
SMILES: C/C(O)=C1\C(=O)[C@@H]2Cc3c([nH]c4ccccc34)[C@H](c3ccccc3)N2C1=O

SMILES: O=C1/C(=C(/O)c2ccc(F)cc2)C(=O)N2[C@H](c3ccc(-c4cc(F)cc(F)c4)cc3)c3[nH]c4ccccc4c3C[C@@H]12
MIC (Staphylococcus aureus [1]): 0.5 µg/mL (≈ 0.908 µM) | MIC [2]: 0.5 µg/mL (≈ 0.908 µM) | MIC (Staphylococcus aureus [3]): 0.5 µg/mL (≈ 0.908 µM)

MIC (Staphylococcus aureus [1]): 4 µg/mL (≈ 10.6 µM)
SMILES: C/C(O)=C1\C(=O)[C@@H]2Cc3c([nH]c4ccccc34)[C@@H](c3ccc(F)cc3)N2C1=O

Reference: ChEMBL document CHEMBL5608208, “Design, synthesis of griseofamine A derivatives and development of potent antibacterial agents against MRSA” (Eur J Med Chem, 2024)
